Measured values published in patent US20080182842A1, “L-alanine derivatives as a5beta1 antagonists” (ASTRAZENECA AB, priority 2007, published 2008).

Biological target: α5β1 integrin (Homo sapiens, UniProt P05556+P08648)
Test: In vitro binding assay (a): inhibition of binding of α5β1 integrin to fibronectin fragment Fn9-10 (Origen electrochemiluminescence)
Details: recombinant human α5β1 vs Fn9-10 ligand; geometric mean where tested more than once
Excerpt: (a) In Vitro Binding Assay
The assay determined the ability of compounds to inhibit binding of α5β1 integrin to a cognate ligand, a fragment of human fibronectin. The assay used Origen technology (IGEN International) to measure the compound activity. Briefly, α5β1 integrin was coated onto epoxy-paramagnetic beads (Dynal Biotech UK, Bromborough, Wirral, CH62 3QL, UK, Catalogue No 140.11) and biotinylated-fibronectin ligand was coupled to strepatividin labeled Tag-NHS-Ester (BioVeris Corporation, Witney, Oxfordshire, OX28 4GE, UK, Catalogue No 110034). The ruthenium-labeled tag emits an electrochemiluminescence signal upon stimulation which is detected by the Origen reader. Thus, interaction of integrin and ligand causes association of bead and tag, and the resulting electrochemiluminescence signal reflects the level of integrin interaction with fibronectin.
20 μg of recombinant human α5β1 was coated onto 4×10(7) epoxy-paramagnetic beads according to manufacturers instructions at 4° C. for 24 hours. Integrin coating and corresponding activity was subsequently measured for each batch but typically, 25 ng of coated protein was used per assay well.
A DNA fragment encoding the domains 9-10 (amino-acids 1325-1509) of human fibronectin (Swiss-Prot Accession No. P02751) was isolated from cDNA libraries using standard molecular biology and PCR cloning techniques. The cDNA fragment was sub-cloned into a pT73.3 expression vector containing a GST-epitope tag (developed at AstraZeneca; Bagnall et al., Protein Expression and Purification, 2003, 27: 1-11). Following expression in E. coli, the expressed protein, termed Fn9-10, was purified using the GST-tag using standard purification techniques. The recombinant Fn9-10 was subsequently biotinylated using a EZ-link Sulfo-NHS-LC-Biotinylation kit (Perbio Science UK Ltd., Cramlington, Northumberland, NE23 1WA, UK, Catalogue No. 21335) and made to give a final concentration of approximately 1 mg/ml. Tag-NHS-Ester was labeled with streptavidin by incubation at room temperature following manufacturers instructions and buffer-exchanged into PBS to give a concentration of 0.5 mg/ ml. Immediately prior to the assay, biotinylated-Fn9-10 and Streptavidin-labeled Tag were diluted in Assay Buffer to give a final concentrations of 0.6 ug/ml and 1.5 ug/ml respectively. The Fn9-10 and Tag solutions were then mixed together in equal volumes and incubated on ice for at least 30 minutes prior to the assay.
Test compounds were prepared as 10 mM stock solutions in DMSO (Sigma-Aldrich Company Ltd, Gillingham, Dorset SP8 4XT Catalogue No. 154938) and serially diluted with 4% DMSO to give a range of test concentrations at ×4 required final concentration. Aliquots (20 μl) of each compound dilution were placed into each well of a 384-well round bottomed polypropylene plate (Matrix Technologies, Wilmslow, Cheshire, SK9 3LP, Catalogue No. 4340 384). Each plate also contained control wells: maximum signal was created using wells containing 20 μl of 4% DMSO, and minimum signal corresponding to no binding was created using wells containing 20 μl of 80 mM EDTA (Sigma Catalogue No. E7889).
For the assay, 25 ng(20 ul) of a5b1-bead suspension and 40 μl of the Fn9-10/Tag pre-incubated solution were added to each well containing 20 μl of compound or control solution. Assay plates were then incubated at room temperature for a minimum of 6 hours before being analysed on an Origen plate reader. The minimum value was subtracted from all values, and the signal was plotted against compound concentration to generate IC50 data.
The data in the above table was generated in an assay substantially as described above in relation to Binding Assay (a). Some of the compounds shown in the table were tested more than once in the assay. For those compounds the IC50 value shown is the geometric mean of the measured IC50 values. […]

Sequence of α5β1 integrin (P08648 42-894 limits assumed): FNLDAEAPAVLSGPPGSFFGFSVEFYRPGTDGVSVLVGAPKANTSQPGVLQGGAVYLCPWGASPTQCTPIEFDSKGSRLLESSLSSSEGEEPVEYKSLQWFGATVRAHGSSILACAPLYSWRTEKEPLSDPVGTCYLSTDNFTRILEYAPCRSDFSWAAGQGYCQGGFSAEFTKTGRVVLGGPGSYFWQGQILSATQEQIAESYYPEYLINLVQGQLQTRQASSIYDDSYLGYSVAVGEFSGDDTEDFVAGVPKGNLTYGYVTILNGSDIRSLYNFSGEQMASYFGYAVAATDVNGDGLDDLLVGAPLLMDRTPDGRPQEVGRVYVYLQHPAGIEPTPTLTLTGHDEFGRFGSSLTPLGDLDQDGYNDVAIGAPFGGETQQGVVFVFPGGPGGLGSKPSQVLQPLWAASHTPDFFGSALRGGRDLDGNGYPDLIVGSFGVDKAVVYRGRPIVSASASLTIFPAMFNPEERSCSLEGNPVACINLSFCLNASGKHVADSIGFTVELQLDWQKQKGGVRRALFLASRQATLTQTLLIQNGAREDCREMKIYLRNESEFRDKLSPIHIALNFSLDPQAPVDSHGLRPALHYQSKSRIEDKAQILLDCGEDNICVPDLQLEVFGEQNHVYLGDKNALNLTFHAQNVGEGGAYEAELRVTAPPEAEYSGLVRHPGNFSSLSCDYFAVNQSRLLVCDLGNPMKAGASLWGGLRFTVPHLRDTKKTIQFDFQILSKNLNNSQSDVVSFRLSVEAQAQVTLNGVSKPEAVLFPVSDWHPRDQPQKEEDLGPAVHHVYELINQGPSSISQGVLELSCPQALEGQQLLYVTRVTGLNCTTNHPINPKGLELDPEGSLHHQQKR
Sequence of α5β1 integrin (P08648 895-1049 partner limits assumed): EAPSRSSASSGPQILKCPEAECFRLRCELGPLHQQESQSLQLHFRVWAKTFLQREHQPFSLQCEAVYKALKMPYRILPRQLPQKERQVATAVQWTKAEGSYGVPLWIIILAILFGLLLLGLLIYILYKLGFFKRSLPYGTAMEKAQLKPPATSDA
Sequence of α5β1 integrin (P05556 21-798): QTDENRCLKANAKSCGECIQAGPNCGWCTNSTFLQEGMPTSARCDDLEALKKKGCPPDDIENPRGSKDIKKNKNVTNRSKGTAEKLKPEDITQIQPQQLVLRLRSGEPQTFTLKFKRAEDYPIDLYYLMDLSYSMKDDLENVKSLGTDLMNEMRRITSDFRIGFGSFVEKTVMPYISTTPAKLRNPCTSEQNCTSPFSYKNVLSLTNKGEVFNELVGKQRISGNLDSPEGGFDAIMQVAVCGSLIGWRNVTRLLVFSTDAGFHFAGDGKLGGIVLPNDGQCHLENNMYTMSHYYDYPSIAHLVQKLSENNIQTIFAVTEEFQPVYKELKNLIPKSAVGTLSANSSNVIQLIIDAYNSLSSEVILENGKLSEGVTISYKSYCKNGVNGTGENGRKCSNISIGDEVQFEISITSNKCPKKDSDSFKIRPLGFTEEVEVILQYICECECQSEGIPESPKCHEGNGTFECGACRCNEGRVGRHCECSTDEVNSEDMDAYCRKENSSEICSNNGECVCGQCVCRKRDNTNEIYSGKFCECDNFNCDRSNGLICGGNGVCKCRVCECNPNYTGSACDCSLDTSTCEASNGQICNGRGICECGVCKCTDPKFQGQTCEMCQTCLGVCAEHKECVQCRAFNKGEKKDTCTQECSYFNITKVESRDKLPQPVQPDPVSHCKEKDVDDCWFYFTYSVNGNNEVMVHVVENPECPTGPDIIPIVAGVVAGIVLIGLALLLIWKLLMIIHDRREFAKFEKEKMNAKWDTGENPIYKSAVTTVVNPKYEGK

Row | Compound | IC50 [nM]
1 | CNc1cccc(CCOc2ccc(C[C@H](NC(=O)C3CCCN3C(C)C)C(=O)O)cc2)n1 (stereo partly drawn) [Example 4, N-[(1-isopropylpyrrolidin-2-yl)carbonyl]-O-{2-[6-(methylamino)pyridin-2-yl]ethyl}-L-tyrosine] | 61
2 | CNc1cccc(CCOc2ccc(C[C@H](NC(=O)C(C)(C)C(=O)N3CCCC3)C(=O)O)cc2)n1 [Example 1.5, N-(2,2-dimethyl-3-oxo-3-pyrrolidin-1-ylpropanoyl)-O-{2-[6-(methylamino)pyridin-2-yl]ethyl}-L-tyrosine] | 2
3 | CNc1cccc(CCOc2ccc(C[C@H](NC(=O)Cc3ccccc3)C(=O)O)cc2)n1 [Example 1.22, O-{2-[6-(methylamino)pyridin-2-yl]ethyl}-N-(phenylacetyl)-L-tyrosine] | 215
4 | CNc1cccc(CCOc2ccc(C[C@H](NC(=O)C3(CO)CCOCC3)C(=O)O)cc2)n1 [Example 1.20, N-{[4-(hydroxymethyl)tetrahydro-2H-pyran-4-yl]carbonyl}-O-{2-[6-(methylamino)pyridin-2-yl]ethyl}-L-tyrosine] | 32
5 | CNc1cccc(CCOc2ccc(C[C@H](NC(=O)C(O)c3ccccc3)C(=O)O)cc2)n1 (stereo partly drawn) [Example 1.23, N-[hydroxy(phenyl)acetyl]-O-{2-[6-(methylamino)pyridin-2-yl]ethyl}-L-tyrosine] | 837
6 | CNc1cccc(CCOc2ccc(C[C@H](NC(=O)Cc3cccnc3)C(=O)O)cc2)n1 [Example 1.26, O-{2-[6-(methylamino)pyridin-2-yl]ethyl}-N-(pyridin-3-ylacetyl)-L-tyrosine] | 525
7 | CC1CCCCC1C(=O)N[C@@H](Cc1ccc(OCCc2ccc3c(n2)NCCC3)cc1)C(=O)O (stereo partly drawn) [Example 2.2, N-[(2-methylcyclohexyl)carbonyl]-O-[2-(5,6,7,8-tetrahydro-1,8-naphthyridin-2-yl)ethyl]-L-tyrosine] | < 1
8 | CNc1cccc(CCOc2ccc(C[C@H](NC(=O)Cc3ccncc3)C(=O)O)cc2)n1 [Example 1.27, O-{2-[6-(methylamino)pyridin-2-yl]ethyl}-N-(pyridin-4-ylacetyl)-L-tyrosine] | 287
9 | CC1(C(=O)N[C@@H](Cc2ccc(OCCc3ccc4c(n3)NCCC4)cc2)C(=O)O)CCCCC1 [Example 2.1, N-[(1-methylcyclohexyl)carbonyl]-O-[2-(5,6,7,8-tetrahydro-1,8-naphthyridin-2-yl)ethyl]-L-tyrosine] | 1
10 | CNc1cccc(CCOc2ccc(C[C@H](NC(=O)[C@@H](C)OC)C(=O)O)cc2)n1 [Example 1.19, N-[(2R)-2-methoxypropanoyl]-O-{2-[6-(methylamino)pyridin-2-yl]ethyl}-L-tyrosine] | 29
11 | CNc1cccc(CCOc2ccc(C[C@H](NC(=O)C3(OC)CCOCC3)C(=O)O)cc2)n1 [Example 1.7, N-[(4-methoxytetrahydro-2H-pyran-4-yl)carbonyl]-O-{2-[6-(methylamino)pyridin-2-yl]ethyl}-L-tyrosine] | 4
12 | CNc1cccc(CCOc2ccc(C[C@H](NC(=O)C3CC3)C(=O)O)cc2)n1 [Example 1.18, N-(cyclopropylcarbonyl)-O-{2-[6-(methylamino)pyridin-2-yl]ethyl}-L-tyrosine] | 608
13 | CCCCCC(=O)N[C@@H](Cc1ccc(OCCc2cccc(NC)n2)cc1)C(=O)O [Example 1.10, N-hexanoyl-O-{2-[6-(methylamino)pyridin-2-yl]ethyl}-L-tyrosine] | 179
14 | COC1(C(=O)N[C@@H](Cc2ccc(OCCc3ccc4c(n3)NCCO4)cc2)C(=O)O)CCOCC1 [Example 5.3, O-[2-(3,4-dihydro-2H-pyrido[3,2-b][1,4]oxazin-6-yl)ethyl]-N-[(4-methoxytetrahydro-2H-pyran-4-yl)carbonyl]-L-tyrosine] | 5
15 | CNc1cccc(CCOc2ccc(C[C@H](NC(=O)C(C)(C)C)C(=O)O)cc2)n1 [Example 1.13, N-(2,2-dimethylpropanoyl)-O-{2-[6-(methylamino)pyridin-2-yl]ethyl}-L-tyrosine] | 34
16 | CCC(=O)N[C@@H](Cc1ccc(OCCc2cccc(NC)n2)cc1)C(=O)O [Example 1.9, O-{2-[6-(methylamino)pyridin-2-yl]ethyl}-N-propionyl-L-tyrosine] | 116
17 | CNc1cccc(CCOc2ccc(C[C@H](NC(=O)C3CCCCC3C)C(=O)O)cc2)n1 (stereo partly drawn) [Example 1.2, O-{2-[6-(methylamino)pyridin-2-yl]ethyl}-N-[(2-methylcyclohexyl)carbonyl]-L-tyrosine] | 7
18 | CNc1cccc(CCOc2ccc(C[C@H](NC(=O)C(c3ccccc3)c3ccccc3)C(=O)O)cc2)n1 [Example 1.24, N-(diphenylacetyl)-O-{2-[6-(methylamino)pyridin-2-yl]ethyl}-L-tyrosine] | 45
19 | CC#CC(=O)N[C@@H](Cc1ccc(OCCc2cccc(NC)n2)cc1)C(=O)O [Example 1.8, N-but-2-ynoyl-O-{2-[6-(methylamino)pyridin-2-yl]ethyl}-L-tyrosine] | 363
20 | CNc1cccc(CCOc2ccc(C[C@H](NC(=O)Cc3ccccn3)C(=O)O)cc2)n1 [Example 1.25, O-{2-[6-(methylamino)pyridin-2-yl]ethyl}-N-(pyridin-2-ylacetyl)-L-tyrosine] | 235
21 | CCCCC(CC)C(=O)N[C@@H](Cc1ccc(OCCc2cccc(NC)n2)cc1)C(=O)O (stereo partly drawn) [Example 1.12, N-(2-ethylhexanoyl)-O-{2-[6-(methylamino)pyridin-2-yl]ethyl}-L-tyrosine] | 8
22 | CNc1cccc(CCOc2ccc(C[C@H](NC(=O)C3CCCCCC3)C(=O)O)cc2)n1 [Example 1.14, N-(cycloheptylcarbonyl)-O-{2-[6-(methylamino)pyridin-2-yl]ethyl}-L-tyrosine] | 7
23 | CNc1cccc(CCOc2ccc(C[C@H](NC(=O)C3(O)CC3)C(=O)O)cc2)n1 [Example 1.6, N-[(1-hydroxycyclopropyl)carbonyl]-O-{2-[6-(methylamino)pyridin-2-yl]ethyl}-L-tyrosine] | 958
24 | CNc1cccc(CCOc2ccc(C[C@H](NC(=O)C3CCCN3C)C(=O)O)cc2)n1 (stereo partly drawn) [Example 3, N-[(1-methylpyrrolidin-2-yl)carbonyl]-O-{2-[6-(methylamino)pyridin-2-yl]ethyl}-L-tyrosine] | 107
25 | CNc1cccc(CCOc2ccc(C[C@H](NC(=O)C3CCCC3)C(=O)O)cc2)n1 [Example 1.16, N-(cyclopentylcarbonyl)-O-{2-[6-(methylamino)pyridin-2-yl]ethyl}-L-tyrosine] | 9
26 | CNc1cccc(CCOc2ccc(C[C@H](NC(=O)[C@H](CC(C)C)NC(=O)c3ccccc3)C(=O)O)cc2)n1 [Example 1.4, N-benzoylleucyl-O-{2-[6-(methylamino)pyridin-2-yl]ethyl}-L-tyrosine] | 66
27 | CNc1cccc(CCOc2ccc(C[C@H](NC(=O)CCc3ccccc3)C(=O)O)cc2)n1 [Example 1.21, O-{2-[6-(methylamino)pyridin-2-yl]ethyl}-N-(3-phenylpropanoyl)-L-tyrosine] | 45
28 | CC(C)(C(=O)N[C@@H](Cc1ccc(OCCc2ccc3c(n2)NCCO3)cc1)C(=O)O)C(=O)N1CCCC1 [Example 5.2, O-[2-(3,4-dihydro-2H-pyrido[3,2-b][1,4]oxazin-6-yl)ethyl]-N-(2,2-dimethyl-3-oxo-3-pyrrolidin-1-ylpropanoyl)-L-tyrosine] | 4
29 | CNc1cccc(CCOc2ccc(C[C@H](NC(=O)C(C)C)C(=O)O)cc2)n1 [Example 1.11, N-isobutyryl-O-{2-[6-(methylamino)pyridin-2-yl]ethyl}-L-tyrosine] | 73
30 | CNc1cccc(CCOc2ccc(C[C@H](NC(=O)[C@H](C)OC)C(=O)O)cc2)n1 [Example 1.3, N-[(2S)-2-methoxypropanoyl]-O-{2-[6-(methylamino)pyridin-2-yl]ethyl}-L-tyrosine] | 22
